Assay results: patent US20100081200A1, “FORMULATIONS AND METHODS FOR CULTURING STEM CELLS” (priority 2007, published 2010)

What was measured:
[1] = tested on: embryonic stem cells; assay: Effect of lithium chloride on embryonic stem cells; type: cell-based
Excerpt: Thus, in some specific embodiments, the serum replacement is devoid lithium chloride.

[2] = tested on: embryonic stem cell colonies; assay: Effect of fetuin and α-fetoprotein on growth rate and size of embryonic stem cell colonies; type: cell-based; conditions: human serum albumin 10 mg/ml
Experimental: All formulations shown contained human serum albumin at a concentration of 10 mg/ml.
The composition of the formulation according to this embodiment of the present invention was further optimized as described above in Table 2.

Molecule	effect on embryonic stem cells [1]	concentration that increased colony size and growth rate the most [2]
[Cl-].[Li+] [lithium chloride]	may be harmful for embryonic stem cells resulting in differentiation	–
A: α-fetoprotein, commercially available fetal carrier protein (protein, UniProt P02771 19-609, looked up) Alpha-fetoprotein: RTLHRNEYGIASILDSYQCTAEISLADLATIFFAQFVQEATYKEVSKMVKDALTAIEKPTGDEQSSGCLENQLPAFLEELCHEKEILEKYGHSDCCSQSEEGRHNCFLAHKKPTPASIPLFQVPEPVTSCEAYEEDRETFMNKFIYEIARRHPFLYAPTILLWAARYDKIIPSCCKAENAVECFQTKAATVTKELRESSLLNQHACAVMKNFGTRTFQAITVTKLSQKFTKVNFTEIQKLVLDVAHVHEHCCRGDVLDCLQDGEKIMSYICSQQDTLSNKITECCKLTTLERGQCIIHAENDEKPEGLSPNLNRFLGDRDFNQFSSGEKNIFLASFVHEYSRRHPQLAVSVILRVAKGYQELLEKCFQTENPLECQDKGEEELQKYIQESQALAKRSCGLFQKLGEYYLQNAFLVAYTKKAPQLTSSELMAITRKMAATAATCCQLSEDKLLACGEGAADIIIGHLCIRHEMTPVNPGVGQCCTSSYANRRPCFSSLVVDETYVPPAFSDDKFIFHKDLCQAQGVALQTMKQEFLINLVKQKPQITEEQLEAVIADFSGLLEKCCQGQEQEVCFAEEGQKLISKTRAALGV	–	0.05 mg/mL
